We go through three compounds from publication PMC11842024, “Reversible male contraception by targeted inhibition of serine/threonine kinase 33” (Science (New York, N.Y.), 2024).

Series [1] has as its target T1, CLK4 (Homo sapiens, UniProt Q9HAZ1). Description: NanoBRET target engagement intracellular kinase assay. The format is cell-based. On the set-up: host or cells: HEK293 (HEK293T cultured). The method, then:
(§1) NanoBRET Target Engagement intracellular kinase assay. HEK293T cells were cultured in […]
(§2) The cell line underwent authentication by short tandem repeat (STR) profiling at Cytogenetics and Cell Authentication Core (CCAC) at MD Anderson Cancer Center. NanoBRET Target Engagement intracellular kinase assay, K-10 assay (Cat. # N2641), K-9 assay (Cat. # N2631), transfection reagent FuGENE HD (Cat. # E2311), transfection carrier DNA (Cat. # E4881), NanoLuc-STK33 fusion vector (Cat. # NV2111), NanoLuc-RET fusion vector (Cat. # NV1951), NanoLuc-CLK1 fusion vector (Cat. # NV1131), NanoLuc-CLK2 fusion vector (Cat. # NV1141), and NanoLuc-CLK4 fusion vector (Cat. # NV1151) were purchased from Promega. The measurement of test compound engagement with cellular target protein was performed in a 384-well format according to manufacturer’s instructions. HEK293 cells were transiently transfected with NanoLuc (STK33, RET, CLK1, CLK2, and CLK4) fusion vectors. After 36 hours of transfection, cells were treated with a fixed concentration of tracer (recommended by Promega) followed by compounds (inhibitors) for 2 hours of incubation. To determine the test compound […]
(§3) 0.4 nM at a fixed tracer concentration. Staurosporine was measured in parallel as a positive control.
(§4) Freshly prepared NanoBRET Nano-Glo substrate plus extracellular NanoLuc inhibitor was then added to initiate the subsequent bioluminescence resonance energy transfer (BRET) measurements using a CLARIOstar Plus BMG LABTECH plate reader. Data analysis was done by measuring the ratio of acceptor emission to donor emission (BRET ratio) and normalized by subtracting no-tracer-control-background. IC50 values were obtained by nonlinear regression using a four-parameter equation in GraphPad Prism 7 (San Diego, CA).

The target of series [2] is T2, RET (Homo sapiens, UniProt P07949). Described as above. The series is classed as cell-based. On the set-up: host or cells: HEK293 (HEK293T cultured). The method, then: as §1, §2, §3, §4
Series [3] concerns the target T3, CLK2 (Homo sapiens, UniProt P49760). The series is described as above. The format is cell-based. On the set-up: host or cells: HEK293 (HEK293T cultured). Here is the method:
as §1, §2, §3, §4

Series [4] addresses T4, CLK1 (Homo sapiens, UniProt P49759). The description is as above. The format is cell-based. On the set-up: host or cells: HEK293 (HEK293T cultured). The method, then:
as §1, §2, §3, §4

The target in series [5] is T5, STK33 (Homo sapiens, UniProt Q9BYT3). The series is described as above. The format is cell-based. Also noted: host or cells: HEK293 (HEK293T cultured). The method, then: as §1, §2, §3, §4
Series [6] in a line: Metabolic stability assay in liver microsomes (MLM). To be noted: mouse, liver microsomes, 2.0 µM, 0.5 mg protein/mL, NADPH; data >60 min is an extrapolated estimate; read-out: Metabolic stability MLM, t1/2. The format is in vitro ADME, mouse. The method, then: (§5) Metabolic stability assay in liver microsomes. The stabilities of CDD-2110, CDD-2211, CDD-2212, CDD-2807, and CDD-3348 in liver microsomes with/without Uridine Diphosphate Glucuronic Acid (UDP-GA, a cofactor of UDP-glucuronosyltransferases) were performed and half-life was calculated as previously reported (36). Briefly, each CDD compound (2.0 μM) was incubated in the mouse or human liver microsomes (0.5 mg protein/mL) at 37°C in 1× PBS fortified with NADPH (1.0 mM) and with/without UDP-GA (2.5 mM). Alamethicin (25 µg/mL) as a pore forming agent was used for the glucuronidation (Table S2A). The samples were collected at specific time-points 0, 30, and 60 min in duplicate. The reactions were terminated by adding equivalent volume of ice-cold methanol (CH3OH) and vortexed. After centrifugation at 15000 g for 10 min, 3.0 μL of the supernatant was analyzed by Thermo TSQ Quantis MS coupled with a Thermo Vanquish UHPLC (San Jose, CA) equipped with a Luna C18 column (1 mm × 50 mm, 1.6 µm, Phenomenex, Torrance, CA). The column temperature was maintained at 40°C. CDD-2807 was monitored under the selected reaction monitoring (SRM) mode coupled with a positive electrospray ionization (ESI) source. The SRM ion pairs were 447→321 for CDD-2807.

Series [7] in a line: Metabolic stability assay in liver microsomes (HLM). The series is classed as in vitro ADME, human. The settings on record: human, liver microsomes, 2.0 µM, 0.5 mg protein/mL, NADPH; data >60 min is an extrapolated estimate; read-out: Metabolic stability HLM, t1/2. Here is the method: as §5
Series [8] addresses T1, CLK4. Description: LanthaScreen binding assay (ThermoFisher SelectScreen). Also noted: purchased SelectScreen Services (ThermoFisher). The source says: (§6) In vitro biochemical assays. Several small molecule assays were outsourced to SelectScreen Services (ThermoFisher) for STK33 and for off-target kinases (data sets are available on demand).
(§7) These assays are LanthaScreen (binding assay) and Z’-LYTE (activity assay). Dose-responses were done with at least 5 different concentrations in duplicates, and parameters were optimized by calculations described below and provided with standard errors.
(§8) Calculation of Kd values for kinase inhibitors that bind to the ATP pocket of a kinase from LanthaScreen binding data. DynaFit (71) was used to fit complex equilibria where a tracer is displaced by a dilution series of a kinase inhibitor. This method relies on the concentration of inhibitor, as well as the concentration of kinase and tracer, and Kd of the tracer. The latter three parameters are tabulated by ThermoFisher for each kinase in the LanthaScreen assay panel. […]

The target in series [9] is T5, STK33. The description is as above. On the set-up: purchased SelectScreen Services (ThermoFisher).
Source text: as §6, §7, §8
Since Kd and Ki values are defined the same way, in other words, Kd = [E] [I] / [EI] = Ki, Kd and Ki values can be compared. […]

For series [10], the target named is T2, RET. Description: Z'-LYTE activity assay (ThermoFisher SelectScreen). The series is classed as biochemical. Also noted: purchased SelectScreen Services (ThermoFisher). The settings on record: [ATP] = Kmapp.
Source text: as §6
(§9) These assays are LanthaScreen (binding assay) and Z’-LYTE (activity assay). Dose-responses were done with at least 5 different concentrations in duplicates, and parameters were optimized by calculations described below and provided with standard errors. […]
(§10) Calculation of Ki values for kinase inhibitors from Z’-LYTE inhibition data. The Morrison equation with [ATP] = Kmapp for competitive inhibition (GraphPad Prism 7, San Diego, CA) was used to get Ki values. Since Kd and Ki values are defined the same way, in other words, Kd = [E] [I] / [EI] = Ki, Kd and Ki values can be compared. […]

In series [11] the target is T3, CLK2. Description: Z'-LYTE activity assay (ThermoFisher SelectScreen). The series is classed as biochemical. To be noted: [ATP] = Kmapp. Also noted: purchased SelectScreen Services (ThermoFisher).
Source text: as §6, §9, §10

The target of series [12] is T4, CLK1. Description: Z'-LYTE activity assay (ThermoFisher SelectScreen). The format is biochemical. On the set-up: purchased SelectScreen Services (ThermoFisher). To be noted: [ATP] = Kmapp.
Source text: as §6, §9, §10

Series [13] addresses T5, STK33. Description: Kinase assay screening against STK33 at 500 nM. Also noted: purchased SelectScreen Services (ThermoFisher). The format is biochemical.
Setting [14] is: HEK293 cells, 2 hours incubation.

T5 sequence (Q9BYT3 whole entry): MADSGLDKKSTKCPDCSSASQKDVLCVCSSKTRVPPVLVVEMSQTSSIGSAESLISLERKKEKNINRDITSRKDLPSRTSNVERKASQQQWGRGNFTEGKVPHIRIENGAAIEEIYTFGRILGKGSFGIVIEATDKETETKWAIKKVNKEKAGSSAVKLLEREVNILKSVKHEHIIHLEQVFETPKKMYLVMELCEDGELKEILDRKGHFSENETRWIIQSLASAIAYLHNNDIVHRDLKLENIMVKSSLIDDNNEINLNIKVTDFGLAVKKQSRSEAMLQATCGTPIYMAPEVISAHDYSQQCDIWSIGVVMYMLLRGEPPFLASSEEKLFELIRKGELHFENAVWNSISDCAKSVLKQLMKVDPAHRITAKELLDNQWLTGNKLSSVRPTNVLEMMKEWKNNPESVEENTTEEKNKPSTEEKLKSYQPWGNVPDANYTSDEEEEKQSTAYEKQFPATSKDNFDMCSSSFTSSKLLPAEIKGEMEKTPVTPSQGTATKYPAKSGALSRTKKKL
T3 sequence (P49760 whole entry): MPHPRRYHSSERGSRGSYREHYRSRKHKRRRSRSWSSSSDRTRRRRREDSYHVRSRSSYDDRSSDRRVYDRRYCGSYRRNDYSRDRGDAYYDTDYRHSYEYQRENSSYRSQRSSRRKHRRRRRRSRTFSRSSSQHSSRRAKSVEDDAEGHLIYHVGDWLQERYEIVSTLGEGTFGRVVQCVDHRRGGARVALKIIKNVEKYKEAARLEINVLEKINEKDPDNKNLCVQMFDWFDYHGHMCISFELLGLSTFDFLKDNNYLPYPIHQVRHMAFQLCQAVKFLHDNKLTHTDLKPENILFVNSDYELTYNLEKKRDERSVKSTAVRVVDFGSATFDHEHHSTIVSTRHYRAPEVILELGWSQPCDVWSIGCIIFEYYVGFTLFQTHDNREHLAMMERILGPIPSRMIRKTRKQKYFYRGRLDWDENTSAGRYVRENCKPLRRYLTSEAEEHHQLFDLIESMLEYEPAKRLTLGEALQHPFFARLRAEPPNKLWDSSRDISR
T1 sequence (Q9HAZ1 whole entry): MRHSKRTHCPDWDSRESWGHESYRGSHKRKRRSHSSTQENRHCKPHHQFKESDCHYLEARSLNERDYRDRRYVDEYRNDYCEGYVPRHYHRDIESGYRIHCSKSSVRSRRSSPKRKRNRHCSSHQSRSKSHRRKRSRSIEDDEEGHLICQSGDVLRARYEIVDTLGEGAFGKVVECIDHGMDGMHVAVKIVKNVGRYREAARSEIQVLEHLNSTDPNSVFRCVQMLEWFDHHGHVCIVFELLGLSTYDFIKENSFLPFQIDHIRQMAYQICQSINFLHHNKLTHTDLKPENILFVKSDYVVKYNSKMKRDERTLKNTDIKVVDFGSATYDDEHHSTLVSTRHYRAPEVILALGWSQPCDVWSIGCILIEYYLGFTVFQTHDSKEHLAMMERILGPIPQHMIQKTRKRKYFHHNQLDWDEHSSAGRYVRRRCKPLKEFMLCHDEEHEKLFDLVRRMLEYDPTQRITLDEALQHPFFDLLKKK
T4 sequence (P49759 whole entry): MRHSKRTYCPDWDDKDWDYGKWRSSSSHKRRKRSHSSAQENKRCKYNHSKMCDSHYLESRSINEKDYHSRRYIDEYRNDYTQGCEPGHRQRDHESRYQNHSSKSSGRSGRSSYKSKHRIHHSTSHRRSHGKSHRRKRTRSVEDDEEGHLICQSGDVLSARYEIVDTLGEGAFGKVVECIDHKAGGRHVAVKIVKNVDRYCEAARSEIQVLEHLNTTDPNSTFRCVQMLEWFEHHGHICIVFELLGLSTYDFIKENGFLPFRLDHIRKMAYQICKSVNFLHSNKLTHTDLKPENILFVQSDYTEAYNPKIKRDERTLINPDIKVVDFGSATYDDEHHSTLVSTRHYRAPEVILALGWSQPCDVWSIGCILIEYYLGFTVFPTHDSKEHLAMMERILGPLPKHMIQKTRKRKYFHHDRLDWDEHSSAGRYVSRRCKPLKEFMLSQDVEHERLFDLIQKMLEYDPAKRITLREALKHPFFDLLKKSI
T2 sequence (P07949 29-1114): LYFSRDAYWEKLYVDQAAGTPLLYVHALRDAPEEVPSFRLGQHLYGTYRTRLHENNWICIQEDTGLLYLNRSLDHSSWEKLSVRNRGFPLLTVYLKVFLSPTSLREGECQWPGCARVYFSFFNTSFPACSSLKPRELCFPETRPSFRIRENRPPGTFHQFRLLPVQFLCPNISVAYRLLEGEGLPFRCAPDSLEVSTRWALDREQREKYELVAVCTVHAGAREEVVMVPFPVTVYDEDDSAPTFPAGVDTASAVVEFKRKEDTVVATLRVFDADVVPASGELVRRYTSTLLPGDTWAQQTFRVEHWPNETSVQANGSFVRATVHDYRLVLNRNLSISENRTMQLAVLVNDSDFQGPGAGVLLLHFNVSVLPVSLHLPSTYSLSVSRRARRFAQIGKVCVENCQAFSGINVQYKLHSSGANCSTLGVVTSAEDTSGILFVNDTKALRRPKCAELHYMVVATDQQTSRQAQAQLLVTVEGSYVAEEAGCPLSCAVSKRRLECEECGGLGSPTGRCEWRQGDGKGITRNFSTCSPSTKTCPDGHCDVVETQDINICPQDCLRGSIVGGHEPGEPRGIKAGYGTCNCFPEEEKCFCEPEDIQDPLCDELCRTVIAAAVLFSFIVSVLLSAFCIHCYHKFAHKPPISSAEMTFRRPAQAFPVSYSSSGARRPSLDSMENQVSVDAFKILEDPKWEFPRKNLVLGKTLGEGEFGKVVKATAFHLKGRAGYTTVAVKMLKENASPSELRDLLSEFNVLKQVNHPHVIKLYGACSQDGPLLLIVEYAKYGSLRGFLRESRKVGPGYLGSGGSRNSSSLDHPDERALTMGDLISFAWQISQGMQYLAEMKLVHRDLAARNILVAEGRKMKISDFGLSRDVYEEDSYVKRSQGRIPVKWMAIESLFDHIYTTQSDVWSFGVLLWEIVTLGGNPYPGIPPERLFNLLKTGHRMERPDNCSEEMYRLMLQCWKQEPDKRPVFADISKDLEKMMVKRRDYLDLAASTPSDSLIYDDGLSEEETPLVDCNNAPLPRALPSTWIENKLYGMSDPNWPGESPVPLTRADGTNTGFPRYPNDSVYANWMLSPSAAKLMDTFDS

As to `CNC(=O)CCC1CCN(C(=O)C2CCN(C3CCN(C(=O)c4ccc5[nH]nc(C#Cc6ccccc6-c6ccccc6)c5c4)C3)CC2)CC1` (stereo not shown) [CDD-3348], the IC50 on CLK4 [1] (setting [14]) was 3850 nM; at RET [2] (setting [14]), 6410 nM; at CLK2 [3] (setting [14]), 2530 nM; at CLK1 [4] (setting [14]) it was 6730 nM; at STK33 [5] (setting [14]) it was 169 nM. For the same compound, at CLK4 [1] (selectivity vs STK33), the “Fold NanoBRET IC50 CLK4 over STK33 (in parentheses)” value was determined as 23 X. For the same compound, the “Fold NanoBRET IC50 RET over STK33 (in parentheses)” value on RET [2] (selectivity vs STK33) amounted to 38 X. In addition, at CLK2 [3] (selectivity vs STK33), the “Fold NanoBRET IC50 CLK2 over STK33 (in parentheses)” value stood at 15 X. Moreover, the “Fold NanoBRET IC50 CLK1 over STK33 (in parentheses)” value at CLK1 [4] (selectivity vs STK33) came out at 40 X. Further, at STK33 [5], the “selectivity toward STK33 compared to CLK1, CLK2, CLK4, and RET” value is listed as > 10 fold. In addition, the half-life at 2 µM in series [6] is 14 min; in series [7] it was 13 min. For the same compound, the Kd worked out at 26.2 ± 1.5 nM at CLK4 [8] and 0.06 nM on STK33 [9]. Moreover, the Ki at RET [10] is 5.6 ± 0.5 nM; at CLK2 [11] it was 58.3 ± 3.3 nM; at CLK1 [12], 477 ± 34 nM.

On to `CN(C)C1CCN(C(=O)c2ccc3c(c2)c(C#Cc2ccccc2-c2ccccc2)nn3C)C1` (stereo not shown) [Compound S8], for which, on STK33 [13], the “kinase assay screening against STK33” value is on record as “not passing”.

Turning to `CN(C)C1CCN(C(=O)c2ccc3[nH]nc(Cc4ccccc4-c4ccccc4)c3c2)C1` (stereo not shown) [Compound S11], the “kinase assay screening against STK33” value on STK33 [13] is listed as “not passing”.
